Drawing on a melting point compilation (Tetko et al.; mined from patent text by program, amines drawn as free bases though some values may be those of a salt), this text covers melting point for 63 compounds.

Bounds are passed on as bounds.

Broadly, the melting point is the temperature, or range, at which the solid turns liquid. `Cn1c2ccccc2c2sc3ccccc3c21`: the melting point was 175 to 176 °C.
The compound `Cc1ccc2c(N3CCN(CCc4cccc(N5CCNC5=O)c4)CC3)cccc2n1` registered a melting point of 164 °C.
Regarding `CCn1nc(-c2ccccc2)c(C(=O)O)c(Nc2cccnc2)c1=O`, the melting point fell in the range of 255 to 257 °C.
In turn, `CCCCc1nc(Cl)c(C(=O)O)n1Cc1ccc2oc(-c3ccccc3C#N)c(OC)c2c1` showed a melting point of 158 to 160 °C.
`Cc1ccc(C)c(COc2ccc(N)nn2)c1` yielded a melting point of 109 to 111 °C.
On to `O=C(Nc1ccccc1OCC1CO1)c1cccc2[nH]ccc12` (stereo not drawn), for which the melting point was determined as 122 °C.
For `COc1cc(CCc2ccc(N)cc2)cc(OC)c1OC`, the melting point was 84 to 85 °C.
In turn, `CC(C)OC(=O)N1CCC(c2nc3cc(-c4ccc(S(C)(=O)=O)cc4F)ccc3o2)CC1` displayed a melting point of 96.5 to 101 °C.
For `CCN(CC)C(=O)C(C)Cc1nc(-c2ccccc2)nc2ccccc12` (stereo not drawn) the value was 93.5 °C.
For `O=c1cc(CBr)c2ccc(O)cc2o1` the value was 182 to 184 °C.
As for `NC(=O)CCn1c(-c2ccc(Cl)cc2)nc2cccnc21`, the melting point fell in the range of 248 to 250 °C.
In the case of `O=c1ncc(Br)cn1CCO`, the melting point fell in the range of 177 to 179 °C.
`N#CC1=C(c2ccsc2)Nc2n[nH]cc2C1c1cccc2nonc12` (stereo not drawn) came in with a melting point of 242 °C.
For `C=CCN(CC=C)c1nc(NC(=O)c2ccc(Cl)cc2Cl)n2oc(=O)nc2n1` the value was 163 to 164 °C.
On to `Cc1nc2c(C(F)(F)F)cccc2c(-c2ccccc2)c1C(=O)c1ccccc1`, for which the melting point is 175 to 177 °C.
For `O=S(=O)(Cl)c1ccccc1CCl` the value was 43 to 45 °C.
The compound `O=[N+]([O-])c1c(Nc2ccc3[nH]ccc3c2)ncnc1-c1ccc(C(F)(F)F)cc1F` showed a melting point of 147 to 149 °C.
`CC1(C)C(=O)C(C)(C)c2cc3[nH]c(S)nc3cc21`: the melting point is greater than 300 °C.
`CC(C)C1c2ccc(F)cc2CCC1(O)CC(=O)O` (stereo not drawn): the melting point lay within 102 to 104 °C.
For `CC(C)Cn1c(CO)nc2c(N)nc3cccnc3c21`, the melting point lay in the range of 226 to 228 °C.
The value for `O=C(Nc1ccc(-n2nc(C3CC3)cc2C2CC2)c(F)c1)c1c(Cl)cncc1Cl` was 280 to 281 °C; that for `COc1ccc(CC(SC)C(N)=O)cc1C(=O)NCc1ccc(C(F)(F)F)cc1` (stereo not drawn) was 152 to 154 °C.
The value for `CCC(C)n1ncn(-c2ccc(N3CCN(c4ccc(O)cc4)CC3)cn2)c1=O` (stereo not drawn) was 144 to 145 °C.
Regarding `Cn1nc(-c2ncc(Cl)cc2F)c(I)c1OC(F)F`, the melting point lay in the range of 77 to 78 °C.
Consider `FC(F)(F)c1cccc(N=C=S)c1`, for which the melting point worked out at 133 °C.
The value for `COc1cc(C2NC(C(=O)O)CS2)ccc1OCC(=O)NCCO[N+](=O)[O-]` (stereo not drawn) was 151 to 152 °C.
With `CSc1ccc(C(=O)O)c(C(F)(F)F)c1F`, the melting point is 108 to 109 °C.
On to `CC1=C(c2ccc(C(=O)N3Cc4ccc(C(=O)O)n4Cc4ccccc43)cc2)CCCC1`, for which the melting point was determined as 171 °C.
On to `CC(C)c1ccc(NC(=O)N(C)C2N(C)C(c3ccc(F)cc3)=NC2(C(F)(F)F)C(F)(F)F)cc1` (stereo not drawn), for which the melting point lay within 203 to 204 °C.
`CCOC(=O)COc1ccccc1Cc1ccc2ccccc2c1O` came in with a melting point of 124 to 125 °C.
For `CC(C)c1ccc(C(=O)C(c2ccccc2)C2CCCCC2)c(C(C)C)c1OS(N)(=O)=O` (stereo not drawn), the melting point fell in the range of 127 to 137 °C.
`CC(=O)OCC1OC(n2ncc(C#N)n2)C(OC(C)=O)C1OC(C)=O` (stereo not drawn) came in with a melting point of 77 to 79 °C.
The value for `O=c1n(CCCF)nnn1-c1cc(Oc2ccc(O)cc2)c(Cl)cc1F` was 157 to 159 °C.
The value for `CC1NC(=S)NN=C1c1ccccc1` (stereo not drawn) was 213 to 214 °C; that for `CSc1cc(SC)c2ccc3c(SC)cc(SC)c4ccc1c2c43` was 275 to 280 °C; that for `CN(CCCCC(=O)N1CCN(c2nc3cc(C(=O)Nc4nc(C(C)(C)C)cs4)ccn3c(=O)c2/C=C/C(=O)O)CC1)CC(=O)O` was 169 to 172 °C.
For `CC(=O)OCCc1cc2c(s1)SCCc1cc(=O)n(-c3ccc(Cl)cc3)nc1-2`, the melting point was 115 to 117 °C.
Take `CS(=O)c1ccc(CCCCCCCCCCC(Cl)(Cl)C(=O)O)cc1` (stereo not drawn): the melting point is 75 to 76 °C.
The value for `CCOC(=O)c1ccc(NC(C)=O)c(CC(O)CO)c1` (stereo not drawn) was 114 to 116 °C.
`Cc1c(C)c2c(c(C)c1OCc1ccccc1)CCC(C)(C(=O)O)O2` (stereo not drawn) had a melting point of 154 to 155 °C.
`CC(=O)OCCOCn1cnc2c(N)nc(N)nc21` displayed a melting point of 69 to 70 °C.
For `Cc1cc(C2CN(C(=O)Nc3ccc(OC(F)(F)F)cc3)N=C2c2ccccc2)on1` (stereo not drawn) the value was 195 to 197 °C.
Compound `CC(=O)N1CC(Cc2ccccc2)OC1=O` (stereo not drawn) gave a melting point of 90 °C.
With `CC(C)Cc1ccc(CCc2cc3c(s2)NC(=O)C(c2ccccc2)N=C3c2ccccc2Cl)cc1` (stereo not drawn), the melting point is 201 to 203 °C.
The value for `Cc1c(C(=O)O)oc2c(c1=O)CSc1ccccc1-2` was 299 to 301 °C.
The value for `CCOC(=O)c1c(CN(C)C2CCCCC2)nc2cc(OC)c(OC)cc2c1-c1ccc(OC)c(OC)c1` was 172 to 174 °C; that for `O=C(NCCO)c1ccc(-c2ccc3nnn(Cc4ccc5ncccc5c4)c3n2)cc1` was greater than 260 °C.
For `CCOC(=O)CCCCC(=O)c1ccc2cc(O)ccc2c1`, the melting point was in the range of 139 to 142 °C.
Regarding `O=c1c2c(Cc3ccccc3C(F)(F)F)n[nH]c2c2cccnc2n1-c1cccc(C(F)(F)F)c1`, the melting point lay within 260 to 264 °C.
In turn, `CCC(C)(C)c1cc(C(=O)COc2ccc(C=O)cc2OC)cc(C(C)(C)CC)c1O` returned a melting point of 106 to 107 °C.
The value for `Cc1oc(-c2ccccc2)nc1COc1ccccc1COc1cccc(CC(=O)O)c1` was 104 to 105 °C; that for `CC12CCC(=O)C=C1CCC1C2CCC2(C)C(n3ccnn3)=CCC12` (stereo not drawn) was 118 to 120 °C.
Take `CCCOc1cccc(C=C(C=O)C(C=O)=Cc2cccc(OCCC)c2)c1`: the melting point was in the range of 93 to 94 °C.
`CCN(CC)C(=O)c1ccc2ccccc2c1-c1cccc(OC)c1`: the melting point was 91 to 93 °C.
The value for `CCOC(=O)CCc1c(OCCCCCBr)ccc2ccc(OCC(=O)OCC)cc12` was 29.5 to 32 °C; that for `CCCCc1nc2ccccn2c(=O)c1-c1ccc(Cl)c(OC)c1` was 113 to 115 °C.
Turning to `CN1C(=O)C(C)(C)N=C(c2ccccc2F)c2c(Cl)c(N)c(Cl)c(Cl)c21`, the melting point is 165 to 166 °C.
Compound `CC(C)(C)CCCC(=O)Cn1ccnc1` yielded a melting point of 45 to 46 °C.
The value for `CCc1nc2c(N)nc3ccccc3c2n1CCCC#Cc1cccc(C(F)(F)F)c1` was 178 to 181 °C; that for `CCOC(CN1CCN(c2cccc(-n3cnc4cc(C(C)=O)ccc43)c2)CC1)=NO` was 154 to 156 °C.
Take `O=C(CC1CCCC1)Nc1ccc2c(c1)C(=O)C(Br)CC2` (stereo not drawn): the melting point was in the range of 162 to 164 °C.
The value for `CCCCC1=C(C(=O)OCC)C(c2ccccc2Cl)c2c[nH]nc2N1` (stereo not drawn) was 209 °C; that for `NC(=S)Nc1cc(C(F)(F)F)ccc1N1CCOCC1` was 196 to 197 °C.
